The values below come from PubChem BioAssay AID1949 (Southern Research Institute, 2009).

The structures appear in SMILES notation. Converted amounts (≈) assume the structure as drawn. Records with an inconclusive call do not appear. The source made the active and inactive calls. The rule behind the calls is not given here.

In this experiment the test system is M. tuberculosis H37Rv growth inhibition. The experiment can be described thus: Confirmatory growth inhibition assay against Mycobacterium tuberculosis H37Rv, potency (AID 1949).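 Note: bacteria grown 7 days with compound before Alamar blue readout.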

One may read the IC50 as the concentration that inhibits the measured activity by half.

As to `O=C(COc1ccc2ccccc2c1)c1ccc(Cl)cc1`, the IC50 was 16.5 µg/mL (≈ 55.4 µM).
Regarding `CC(C)(C)c1ccc(OCCNC(=O)c2cccc(Br)c2)cc1`, the half-inhibitory concentration (IC50) is 5.19 µg/mL (≈ 13.8 µM).
Take `Cc1cc(C)cc(C(=O)NC(=S)Nc2cc([N+](=O)[O-])ccc2O)c1`: the IC50 was 0.4 µg/mL (≈ 1.16 µM).
In the case of `Cn1nc([N+](=O)[O-])nc1Oc1ccc(C(C)(C)C)cc1`, the 50% inhibitory concentration (IC50) is under 0.1 µg/mL.
Regarding `Cc1ccc(OCC(=O)c2ccc(Br)cc2)cc1C`, the 50% inhibitory concentration (IC50) was 47.7 µg/mL (≈ 149 µM).
For `COC(=O)C(C)Oc1ccc2c3c(c(=O)oc2c1)CCCCC3` (centres undefined), the IC50 is > 50 µg/mL (inactive).
For the molecule `O=C(Cc1ccc(Cl)cc1)Oc1cccc2cccnc12`, the IC50 was > 50 µg/mL (inactive).
In the case of `CCOC(=O)COc1ccc2cc(-c3nc4ccccc4s3)c(=O)oc2c1` it was 1.35 µg/mL (≈ 3.54 µM).
Take `CC(NC(=O)c1ccc([N+](=O)[O-])o1)C12CC3CC(CC(C3)C1)C2` (centres undefined): the IC50 is 4.46 µg/mL (≈ 14 µM).
In the case of `Clc1ccc(OCCn2ccnc2)c2ccccc12` it was 3.99 µg/mL (≈ 14.6 µM).
For the molecule `COC(=O)c1ccc2c(=O)n(-c3ccccc3)c(SCc3ccccc3)nc2c1`, the IC50 was 22.6 µg/mL (≈ 56.2 µM).
Regarding `CC(=O)c1ccc(OC(=O)c2sc3ccccc3c2Cl)cc1`, the IC50 was > 50 µg/mL (inactive).
For the molecule `O=C(Nc1nc(SCc2ccc(F)cc2)ns1)c1cc(F)c(F)cc1Cl`, the IC50 was 2.35 µg/mL (≈ 5.65 µM).
In the case of `COc1cc(NC(=O)c2ccc3c(c2)OCCO3)ccc1NC(=O)c1ccccc1Cl` it was 0.66 µg/mL (≈ 1.5 µM); in that of `Cc1ccccc1Nc1nc(-c2ccccn2)cs1`, under 0.1 µg/mL.
In the case of `O=[N+]([O-])c1ncn(Cc2ccc(Cl)cc2)n1` it was 7.25 µg/mL (≈ 30.4 µM); in that of `Cc1ccc(Cl)cc1N(CC(=O)Nc1ccc(I)cc1)S(C)(=O)=O`, 4.66 µg/mL (≈ 9.73 µM).
As for `CC(CCc1ccccc1)NC(=O)c1ccc(Cl)cc1[N+](=O)[O-]` (centres undefined), the half-maximal inhibitory concentration (IC50) was 3.7 µg/mL (≈ 11.1 µM).
Regarding `COc1ccc(CNc2ccccc2O)cc1OC`, the IC50 is 16.3 µg/mL (≈ 62.7 µM).
For the molecule `Cc1ccc(NS(=O)(=O)c2ccc(NC(=S)NC(=O)c3ccc(F)cc3)cc2)c(C)c1`, the IC50 is 8.09 µg/mL (≈ 17.7 µM).
Consider `Cc1cccc(C(=O)Nc2nc3ccccc3[nH]2)c1`, for which the IC50 was 0.74 µg/mL (≈ 2.94 µM).
As to `CC(C)(C)c1ccc(-c2nc(-c3ccncc3)no2)cc1`, the IC50 is > 50 µg/mL (inactive).
For `COc1cccc(C2Oc3ccccc3C=C2[N+](=O)[O-])c1OC` (centres undefined), the IC50 is > 50 µg/mL (inactive).
Turning to `CCOC(=O)c1cc(-c2ccc(/C=C/[N+](=O)[O-])o2)ccc1Cl`, the IC50 was > 50 µg/mL (inactive).
In the case of `COc1cccc(NC(=O)CSc2ccc(Br)cc2)c1` it was 11.7 µg/mL (≈ 33.2 µM); in that of `CCCc1cc2c(-c3ccccc3)cc(=O)oc2cc1OCC`, > 50 µg/mL (inactive); in that of `O=C(Nc1ccccc1)Nc1ccc(S(=O)(=O)Nc2cccc(C(F)(F)F)c2)cc1`, 2.28 µg/mL (≈ 5.24 µM).
On to `Cc1ccc(NCCC(=O)c2ccc([N+](=O)[O-])cc2)cc1C`, for which the IC50 was 1.06 µg/mL (≈ 3.55 µM).
In the case of `NC(N)=N/N=C/c1ccc(OCc2ccc(Cl)cc2Cl)cc1` it was 11 µg/mL (≈ 32.6 µM); in that of `O=C(Nc1ccc(Cl)c(C(F)(F)F)c1)C1CCN(C(=O)c2ccc(Br)cc2)CC1`, 7.21 µg/mL (≈ 14.7 µM).
As to `CSc1nc(C)cc(OCC(=O)Nc2ccc(Cl)cc2)n1`, the half-inhibitory concentration (IC50) is 6.69 µg/mL (≈ 20.7 µM).
For the molecule `O=C(CC12CC3CC(CC(C3)C1)C2)NC(=S)Nc1cccc(Br)c1`, the IC50 was > 50 µg/mL (inactive).
As for `COc1cc2ccccc2cc1C(=O)NCCC12CC3CC(CC(C3)C1)C2`, the IC50 was 3.27 µg/mL (≈ 9 µM).
Take `CC(C)OC(=O)c1c2c(n3ccccc13)C(=O)c1ccccc1C2=O`: the IC50 is 11.4 µg/mL (≈ 34.2 µM).
Take `O=C(CC(O)(C(F)(F)F)C(F)(F)F)Nc1ccc(Cl)cc1Cl`: the concentration for half-maximal inhibition (IC50) was 5.7 µg/mL (≈ 15.4 µM).
Turning to `O=C(CNS(=O)(=O)c1cccc(C(F)(F)F)c1)N1CCN(c2ccc(Cl)c(Cl)c2)CC1`, the IC50 is 4.79 µg/mL (≈ 9.65 µM).
As to `COc1ccc(OCC(=O)Nc2cccc(-c3nc4ccccc4c(=O)o3)c2)cc1`, the half-inhibitory concentration (IC50) is 37.1 µg/mL (≈ 92.2 µM).
As for `O=[N+]([O-])c1ccc(O)c(-c2nc3ccccc3s2)c1`, the IC50 is > 50 µg/mL (inactive).
In the case of `NC(=O)CSc1nnc(SCc2cccc3ccccc23)s1` it was 15.1 µg/mL (≈ 43.5 µM).
